The values that follow come from patent US20250319136A1, “METHOD FOR PREPARING OLIGOD[…] USE” (Shenzhen ExoNeuglia Biomedical Technology Co., Ltd., priority 2022, published 2025).

The subject of series [1] is hiPSC-derived NSCs. Description: OLIG2 immunostaining of hiPSC-derived NSCs at D12. Conditions: for effect on WIN-induced upregulation of OLIG2+ cells: co-treatment with WIN, D12. The format is cell-based, human. The method, then: (§1) In order to generate PAX6+/NESTIN+/SOX2+NSC, the dual SMAD neural induction method was used. hiPSCs with a density of ˜80% with neural induction medium (NIM) were treated from day 0 (DO) to day 7, and the medium was changed every day. Starting from D8, the medium was changed daily to fresh N2 medium containing RA (100 nM), purine amine (PUR, 1 μM) and WIN (1 μM). Starting from D12, cells were manually isolated and suspended in the ultra-low attachment plate in N2B27 medium containing RA (100 nM), PUR (1 μM) and WIN (1 μM), and the medium was changed every other day. Starting from D20, the spheroids were further suspended in PDGF-AA medium for culture. At D30, expanded spheroids were seeded on Matrigel-coated plates or Petri dishes with low growth factors in the glial differentiation medium (GDM).
(§2) The identification of cell markers in the present invention uses an immunofluorescence staining method, wherein cells (NSCs, OPCs and OLs) at different culture stages were cultured on confocal Petri dishes coated with Matrigel or Matrigel with reduced growth factors, washed three times with pre-cooled PBS, and fixed with 4% paraformaldehyde (PFA) at room temperature for 15 minutes. The fixed samples were then washed three times, permeabilized and blocked with blocking solution containing 0.5% triton X-100 and 2% bovine serum albumin (BSA) for 30 min at room temperature. The diluted primary antibodies listed in Table S2 were applied to cover the cells overnight at 4° C. The next day, the corresponding secondary antibodies (listed in Table S3) were added for staining in the dark for 60 min at room temperature after washing. DAPI containing anti-fluorescence quencher was then added to the culture dish for nuclear staining. Images were taken using a confocal microscope (Zeiss, LSM880) or an inverted microscope (Nikon, Eclipse Ti2-U).

Series [2] deals with hiPSC-derived cell spheres. Kind of series: Cell migration out of spheroids. The format is cell-based, human. Conditions: after 36 hours, n=40. How it is done:
In order to test the migration ability, the inventor carried out experiments on two dimensions of spheroid and single-cell state. First, the inventors have observed the ability of cells in the control and WIN groups to migrate out of the spheroids. Selected spheroids of the same size at day 30 from the control and WIN groups were seeded on 6-well plates coated with Matrigel with reduced growth factor in GDM medium. After 4, 12, 24, and 36 h, cell spheres and migrated cells were observed and imaged under an inverted microscope.

Series [3] relates to hiPSC-derived OPCs. Kind of series: In vitro maturation of OPCs to OLs (O4, GALC, MBP; immunofluorescence and flow cytometry). The series is classed as cell-based, human. The method, then:
as §2
Taking flow cytometry based on anti-O4-APC antibody as an example, 2 μL antibody was added to a 98 μL of single cell suspension containing 1×10^6 cells and cell staining buffer, mixed well and incubated for 10 min in the dark in a refrigerator. After incubation, cells were washed and dried. The cell pellet was then resuspended in an appropriate amount of buffer and filtered through […] cell filter prior to analysis. Flow cytometry was performed on a CytoFLEX cytometer (Beckman, USA).
(In general: A flow cytometer gives signals particle by particle.)

Series [4] concerns rat neuropathic pain models. The conditions noted are these: cited from earlier work.
The subject of series [5] is D30 cells. Description: RNA SEQ on D30 cells. The series is classed as cell-based, human. How it is done: Total RNA was extracted using RNA rapid purification kit (ES science, Shanghai, China) according to the manufacturer's instructions. RNA library sequencing was performed on an Illumina HiseqTM 2500/4000 by Gene Denovo Biotechnology Co.,
Ltd. (Guangzhou, China). Bioinformatics analysis was performed using Omicsmart, which is a real-time interactive online platform for data analysis (http://www.omicsmart.com).

The test system of series [6] is hiPSC-derived OPCs. Description: OPC marker immunofluorescence and flow cytometry at D34. Conditions: D34, n=3. The format is cell-based, human. The method, then:
as §2
Taking flow cytometry based on anti-O4-APC antibody as an example, 2 μL antibody was added to a 98 μL of single cell suspension containing 1×10^6 cells and cell staining buffer, mixed well and incubated for 10 min in the dark in a refrigerator. After incubation, cells were washed and dried. […]

The subject of series [7] is hiPSC-derived OPCs/OLs. Kind of series: qRT-PCR relative mRNA expression in differentiating cells. The series is classed as cell-based, human. The text has this: The present invention uses qRT-PCR to calculate the relative mRNA expression fold changes. The specific method is as follows: according to the manufacturer's instructions, the RNA rapid purification kit (ES science, Shanghai, China) was used to collect and purify the total RNA of cells and spinal cord tissue. After quantifying the RNA concentration with NANODROP ONE (Thermo Fisher Scientific, USA),
EasyScript® Integrated first-line cDNA synthesis Supermix and T100TM thermal cycler (BIO-RAD) was used for […] (one-step gDNA removal), and then PerfectStart Green qPCR SiperMix (TRNAS, China) and LightCycler® 96 (Roche) were used for quantification by qRT-PCR. All processes were performed according to the manufacturer's instructions. 2-AACt method was used to calculate the relative mRNA expression fold changes.

The subject of series [8] is O4+ OPCs. Description: Nanofiber myelination assay. The series is classed as cell-based, human. Conditions: after 2 weeks of culture. How it is done: O4+ OPC isolation was performed according to the manufacturer's instructions using MACS based on anti-O4 microbeads (MiltenyiBiotec, Germany). A single cell suspension was prepared by digesting cells with pre warmed Accutase at 37° C. for 30 min at day 44. After digestion, the cell mixture was diluted with pre-cooled DMEM/F12 and centrifuged at 300 g for 5 min at room temperature. The cells were then resuspended in DMEM/F12 and filtered through […] cell filter, and cells were collected by centrifugation at 300 g for 5 min at room temperature. After mixing evenly, the cell mixture was incubated in a refrigerator for 15 min. Then 1 mL of cold MACS buffer was added and centrifuged at 300 g for 10 min. The cell pellet was resuspended in 500 μL cold MACS buffer and mixed well. Afterwards, the cell mixture was added to the MS column and pre-rinsed using 500 μL cold MACS buffer in the magnetic field of a suitable MACS separator, and the column was washed three times with 500 μL buffer. Unlabeled cells were collected from the effluent. When the column reservoir was empty, the column was placed on a 15 mL collection tube and rinse with 1 mL buffer. Magnetically labeled cells were collected from the effluent by firmly pushing the plunger into the column. The eluted O4+ rich cells were then centrifuged at 300 g for 5 min and resuspended in 1 mL GDM. […]

Series [9] relates to hiPSC-derived NSCs. Description: Number of OLIG2+ spheroids in suspension culture at D20. The series is classed as cell-based, human. Conditions: D20, n=3. The method, then: as §1
The test system of series [10] is hiPSC-derived OPCs. Kind of series: Scratch assay, single-cell migration. The series is classed as cell-based, human. Conditions: at 48h, n=3. The method, then:
In the scratch assay, 34-day-old cells were digested with pre-warmed accutase and filtered through […] cell filter to produce a single-cell suspension. After centrifugation, these single cells were seeded on a 24-well plate coated with Matrigel with reduced growth factor at the density of 2×10^6/mL and cultured with GDM. When the cell confluence reached 70-80%, a scratch was formed on the cell using 10 μL the pipette tip. After washing with DPB, fresh GDM was added to the wells. Cell images were collected at 0, 12, 24, 36, 48, 60, and 72 h using an inverted microscope. All images were measured and analyzed by Image J (i.e., software image J).

The subject of series [11] is NSC. Description: Effect of WIN concentration series on NSC growth. The series is classed as cell-based, human. The conditions noted are these: 1 μM WIN.

Regarding `COc1ccc(C(=O)c2c(C)n(CCN3CCOCC3)c3cc(I)ccc23)cc1` [AM630], the “effect on WIN-induced upregulation of OLIG2+ cells” value in [1] is “significantly inhibited”.
On to `Cc1c(C(=O)c2cccc3ccccc23)c2cccc3c2n1[C@H](CN1CCOCC1)CO3` [WIN, WIN55212-2], for which the “average migration distance of cells from cell spheres” value in series [2] is 203.7±6.3 μm. In [3] (D44, n=4), the “percentage of O4+ cells” value came to 42.4±2.1%. For the same molecule, the “cells expressing immature OL marker GALC” value in [3] (D55, n=3) worked out at 86.2±5.3%. Moreover, the “percentage of mature OLs co-expressing O4 and MBP” value in [3] (D66, n=3) was found to be 37.2±2.9%. For the same molecule, the analgesic activity result in series [4] is recorded as “potent analgesic”. For the same molecule, in [5], the “genes down-regulated compared with control group” value is 98 genes and the “genes up-regulated compared with control group” value is reported as 983 genes. Moreover, the “cells expressing PDGFR α” value in [6] is “more than 95.4±2.2%”. For the same molecule, the “mRNA expression level of PDGFR a compared with control group” value in [7] (D30, n=3, P<0.01) is “up-regulated”. In series [7] (D55), the “mRNA expression of GALC” value is “up-regulated”, the “mRNA expression of MBP” value is “up-regulated” and the “mRNA expression of PLP1” value was “up-regulated”. Besides, in [8], the “area of nanofibers covered by MBP compared with control group” value was “significantly increased” and the “number of MBP+ OLs on nanofibers compared with control group” value is reported as “significantly increased”. For the same molecule, the “OLIG2+ spheroids relative to control group” value in [9] was found to be 1.7 ±0.1 times. For the same molecule, in series [10], the “migration rate in scratch experiment” value was determined as 44.5±1.0%. The “OLIG2-positive (OLIG2+) cells” value in series [1] (1 μM WIN, D12, n=3) is on record as 95.4±0.2%. In addition, the “side effects on the growth of NSC” value in series [11] was “no side effects on the growth of NSC”.
With `Cc1c(C(=O)NN2CCCCC2)nn(-c2ccc(Cl)cc2Cl)c1-c1ccc(Cl)cc1` [rimonabant, Rimonabant], the “effect on WIN-induced upregulation of OLIG2+ cells” value in series [1] is reported as “significantly inhibited”.
